Legend:
[1] = molecular target: AKT1 E17K mutant protein (Homo sapiens (Human), UniProt P31749, E17K); test: Intact mass spectrometry, covalent complex formation and ARQ-092 competition; format: binding; settings: for covalent complex formation with AKT1 E17K mutant protein / covalent complex formation with AKT1 E17K mutant protein in presence of competitor: protein 1 μM, compound 1.5 μM, 2 hrs at 37° C., NaBH4 reduction; for covalent complex formation with AKT1 E17K mutant protein: absence of competitor; for covalent complex formation with AKT1 E17K mutant protein in presence of competitor: with ARQ092 (50 μM); for selectivity of complex formation, AKT1 E17K versus AKT1 WT: comparison of the spectra without competitor
Procedure: (§1) AKT1 WT or AKT1 E17K (1 μM) was treated with a compound from Table 1 (1.5 μM) for 2 hrs at 37° C., with and without ARQ092 (50 μM) competitor as a specificity control. Reversible imines were captured by reductive amination with 5 mM NaBH4 for 5 min. Reduction reactions were quenched by diluting the sample in equal volume acetonitrile+1% TFA, then analyzed by LCMS.
(§2) FIGS. 1 to 25 provide intact mass spectra for AKT1 WT protein and AKT1 E17K mutant protein after incubation with compounds of the present disclosure and subsequent borohydride reduction. […] Further, FIGS. 1 to 10, 12, and 14 to 25 each provide intact mass spectra following the incubation of an AKT1 protein with a compound of the present disclosure both in the absence of a competitor molecule (i.e., ARQ-092, a molecule known to bind to and inhibit the function of AKT1); and in the presence of a significant stoichiometric excess of a competitor molecule.

[2] = molecular target: T1, AKT1 WT (Homo sapiens (Human), UniProt P31749); test: as above; format: binding; settings: protein 1 μM, compound 1.5 μM, 2 hrs at 37° C., NaBH4 reduction; for covalent complex formation with AKT1 WT protein: absence of competitor; for covalent complex formation with AKT1 WT protein in presence of competitor: with ARQ092 (50 μM)
Procedure: as §1, §2
Target sequence in this assay (P31749 2-480): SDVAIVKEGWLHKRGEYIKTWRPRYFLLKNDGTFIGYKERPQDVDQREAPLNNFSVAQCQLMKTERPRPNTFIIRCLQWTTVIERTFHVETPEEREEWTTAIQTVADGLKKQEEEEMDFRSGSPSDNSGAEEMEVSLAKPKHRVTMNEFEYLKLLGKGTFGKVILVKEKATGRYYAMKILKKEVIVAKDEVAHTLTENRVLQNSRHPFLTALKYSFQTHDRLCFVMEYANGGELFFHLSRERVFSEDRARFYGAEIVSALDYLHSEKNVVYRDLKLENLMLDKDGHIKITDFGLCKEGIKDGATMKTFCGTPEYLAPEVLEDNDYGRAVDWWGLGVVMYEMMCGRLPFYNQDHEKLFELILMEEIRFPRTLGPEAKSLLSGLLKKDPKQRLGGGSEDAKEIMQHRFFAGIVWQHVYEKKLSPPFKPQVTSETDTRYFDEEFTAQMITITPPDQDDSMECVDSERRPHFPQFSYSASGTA

[3] = molecular target: AKT1 E17K (Homo sapiens (Human), UniProt P31749, E17K); test: Live cell target engagement (NanoBRET) in HEK293 cells; format: cell-based; settings: for IC50: HEK293, 2 hours at 37° C.
[4] = molecular target: T1, AKT1 WT; test: as above; format: cell-based; settings: HEK293, 2 hours at 37° C.
Target sequence in this assay (P31749 whole entry): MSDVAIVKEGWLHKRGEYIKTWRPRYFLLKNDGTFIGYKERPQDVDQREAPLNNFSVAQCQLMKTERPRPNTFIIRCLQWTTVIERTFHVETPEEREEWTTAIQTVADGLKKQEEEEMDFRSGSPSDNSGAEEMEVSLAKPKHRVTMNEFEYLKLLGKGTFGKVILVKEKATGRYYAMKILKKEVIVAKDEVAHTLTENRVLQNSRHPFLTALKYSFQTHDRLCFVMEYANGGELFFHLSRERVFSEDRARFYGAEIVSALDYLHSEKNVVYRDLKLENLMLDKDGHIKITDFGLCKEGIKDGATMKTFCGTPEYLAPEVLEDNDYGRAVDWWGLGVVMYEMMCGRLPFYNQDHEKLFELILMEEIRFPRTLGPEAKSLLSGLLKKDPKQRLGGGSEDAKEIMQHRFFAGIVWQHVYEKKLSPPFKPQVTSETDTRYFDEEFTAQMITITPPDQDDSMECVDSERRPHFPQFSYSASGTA

[5] = molecular target: AKT2 (Homo sapiens (Human), UniProt P31751); test: as above; format: cell-based; settings: HEK293, 2 hours at 37° C.
[6] = molecular target: T1, AKT1 WT; test: Dissociation rate by intact protein LCMS after ARQ092 chase; format: binding; settings: compound 1.5 μM, 2 hours at 37° C., then ARQ092 50 μM
Procedure: AKT1 WT or AKT1 E17K (1 μM) were treated with a compound of Table 1 (1.5 μM) for 2 hours at 37° C., then ARQ092 (50 μM final concentration) was added to prevent aldehyde-containing compound rebinding after initial dissociation. At various timepoints, aliquots were removed and quenched with 5 mM NaBH4 for 5 min to capture the reversible imine through reductive amination. Reduction reactions were quenched by diluting the sample in equal volume acetonitrile+1% TFA, then analyzed by LCMS. Deconvoluted monoisotopic intensities of unmodified vs. compound-modified mass peaks were compared.
Target sequence in this assay (P31749 2-480): as the sequence (P31749 2-480) above

Chain of AKT2 (P31751 whole entry): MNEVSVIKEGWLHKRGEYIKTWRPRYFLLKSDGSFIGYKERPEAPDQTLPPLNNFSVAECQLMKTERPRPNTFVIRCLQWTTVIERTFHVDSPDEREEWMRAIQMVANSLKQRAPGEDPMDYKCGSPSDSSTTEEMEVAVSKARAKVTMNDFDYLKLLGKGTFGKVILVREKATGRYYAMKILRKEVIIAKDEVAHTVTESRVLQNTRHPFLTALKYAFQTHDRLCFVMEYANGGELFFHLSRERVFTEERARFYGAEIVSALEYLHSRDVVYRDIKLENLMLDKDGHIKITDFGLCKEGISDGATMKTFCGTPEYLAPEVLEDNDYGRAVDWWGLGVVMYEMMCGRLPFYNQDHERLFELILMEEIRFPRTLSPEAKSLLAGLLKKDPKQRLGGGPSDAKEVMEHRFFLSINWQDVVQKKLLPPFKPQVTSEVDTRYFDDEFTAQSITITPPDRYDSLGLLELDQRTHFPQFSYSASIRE
Chain of AKT1 E17K mutant protein (P31749 2-480 E17K): as the sequence (P31749 2-480) above, with E16K counted along it
Chain of AKT1 E17K (P31749 whole entry E17K): as the sequence (P31749 whole entry) above, with E17K counted along it

Row | SMILES | covalent complex formation with AKT1 WT protein [2] | AKT1 E17K IC50: Selectivity vs AKT1 WT [3] | AKT1 E17K IC50: Selectivity vs AKT2 [3] | IC50 [3] | IC50 [4] | IC50 [5] | AKT1 (WT) t1/2 [6] | covalent complex formation with AKT1 E17K mutant protein [1] | covalent complex formation with AKT1 E17K mutant protein in presence of competitor [1] | covalent complex formation with AKT1 WT protein in presence of competitor [2] | selectivity of complex formation, AKT1 E17K versus AKT1 WT [1]
1 | Nc1ncccc1-c1nc2ccc(N3CCOCC3)nc2n1-c1ccc(CNCCc2ccc(C=O)c(O)c2)cc1 [Compound 107, 4-(2-((4-(2-(2-aminopyridin-3-yl)-5-morpholino-3H-imidazo[4,5-b]pyridin-3-yl)benzyl)amino)ethyl)-2-hydroxybenzaldehyde] | only peaks corresponding to unmodified WT protein | 3.5 | 76 | < 100 nM | 100 to 500 nM | > 500 nM | – | only peaks corresponding to unmodified mutant protein | only peaks corresponding to unmodified mutant protein | only peaks corresponding to unmodified WT protein | –
2 | Nc1ncccc1-c1nc2ccc(-c3ccccc3)nc2n1-c1ccc(CNCCc2ccc(C=O)c(O)c2F)cc1 [Compound 122, 4-{2-[({4-[2-(2-aminopyridin-3-yl)-5-phenylimidazo[4,5-b]pyridin-3-yl]phenyl}methyl)amino]ethyl}-3-fluoro-2-hydroxybenzaldehyde] | presence of covalent complex | 1.3 | 3.2 | < 100 nM | < 100 nM | < 100 nM | – | presence of covalent complex | Essentially no covalent complex formation | Essentially no covalent complex formation | –
3 | Nc1ncccc1-c1nc2ccc(-c3ccccc3)nc2n1-c1ccc(CNC(=O)Cc2ccc(C=O)c(O)c2)cc1 [Compound 132, N-(4-(2-(2-aminopyridin-3-yl)-5-phenyl-3H-imidazo[4,5-b]pyridin-3-yl)benzyl)-2-(4-formyl-3-hydroxyphenyl)acetamide] | presence of covalent complex | 3.2 | 23 | < 100 nM | < 100 nM | 100 to 500 nM | – | presence of covalent complex | Essentially no covalent complex formation | Essentially no covalent complex formation | –
4 | Cc1ccc2nc(-c3cccnc3N)n(-c3ccc(C4(NC(=O)Cc5ccc(C=O)c(O)c5F)CC4)cc3)c2n1 [Compound 139, N-(1-{4-[2-(2-aminopyridin-3-yl)-5-methylimidazo[4,5-b]pyridin-3-yl]phenyl}cyclopropyl)-2-(2-fluoro-4-formyl-3-hydroxyphenyl)acetamide] | presence of a covalent complex | 1.7 | 20 | < 100 nM | < 100 nM | 100 to 500 nM | 47.8 min | significant presence of a covalent complex | lower level of covalent complex formation | Essentially no covalent complex formation | selective for complex formation with AKT1 E17K
5 | Nc1ncccc1-c1nc2ccc(-c3cccc(N4CCOCC4)c3)nc2n1-c1ccc(CNC(=O)c2ccc(O)c(C=O)c2)cc1 [Example 20, N-(4-(2-(2-aminopyridin-3-yl)-5-(3-morpholinophenyl)-3H-imidazo[4,5-b]pyridin-3-yl)benzyl)-3-formyl-4-hydroxybenzamide] | presence of a covalent complex | 2 | 6 | < 100 nM | < 100 nM | < 100 nM | – | significant presence of a covalent complex | Essentially no covalent complex formation | Essentially no covalent complex formation | selective for complex formation with AKT1 E17K

Now from value to compound, other results behind:

Row | covalent complex formation with AKT1 WT protein [2] | AKT1 E17K IC50: Selectivity vs AKT1 WT [3] | AKT1 E17K IC50: Selectivity vs AKT2 [3] | IC50 [3] | IC50 [4] | IC50 [5] | AKT1 (WT) t1/2 [6] | SMILES | covalent complex formation with AKT1 E17K mutant protein [1] | covalent complex formation with AKT1 E17K mutant protein in presence of competitor [1] | covalent complex formation with AKT1 WT protein in presence of competitor [2] | selectivity of complex formation, AKT1 E17K versus AKT1 WT [1]
6 | presence of covalent complex | 2.2 | 14 | < 100 nM | 100 to 500 nM | > 500 nM | – | Nc1ncccc1-c1nc2cccnc2n1-c1ccc(CNCCc2ccc(C=O)c(O)c2)cc1 [Compound 114, 4-(2-((4-(2-(2-aminopyridin-3-yl)-3H-imidazo[4,5-b]pyridin-3-yl)benzyl)amino)ethyl)-2-hydroxybenzaldehyde] | presence of covalent complex | Essentially no covalent complex formation | Essentially no covalent complex formation | –
7 | presence of a covalent complex | 1.4 | 10 | < 100 nM | < 100 nM | 100 to 500 nM | – | Nc1ncccc1-c1nc2ccc(N3CCOCC3)nc2n1-c1ccc(C2(NC(=O)Cc3ccc(C=O)c(O)c3F)CC2)cc1 [Compound 140, N-(1-{4-[2-(2-aminopyridin-3-yl)-5-(morpholin-4-yl)imidazo[4,5-b]pyridin-3-yl]phenyl}cyclopropyl)-2-(2-fluoro-4-formyl-3-hydroxyphenyl)acetamide] | significant presence of a covalent complex | Essentially no covalent complex formation | Essentially no covalent complex formation | –
8 | presence of a covalent complex | 1.2 | 4.4 | < 100 nM | < 100 nM | < 100 nM | – | Nc1ncccc1-c1nc2ccc(-n3cccn3)nc2n1-c1ccc(C2(NC(=O)Cc3ccc(C=O)c(O)c3F)CC2)cc1 [Compound 141, N-(1-{4-[2-(2-aminopyridin-3-yl)-5-(pyrazol-1-yl)imidazo[4,5-b]pyridin-3-yl]phenyl}cyclopropyl)-2-(2-fluoro-4-formyl-3-hydroxyphenyl)acetamide] | significant presence of a covalent complex | Essentially no covalent complex formation | Essentially no covalent complex formation | selective for complex formation with AKT1 E17K
